Source: PubChem BioAssay AID248 (DTP/NCI, 2004)
Several values for one entry are separate records, joined by “and”; a condition that tells them apart may be missing. Equal values may be shown once. Inconclusive results and toxic doses are left out.

Test system: L1210 leukemia ip in BDF1 mice, survival T/C
Assay: NCI In Vivo Anticancer Drug Screen. Data for tumor model L1210 Leukemia (intraperitoneal) in B6D2F1 (BDF1) mice
Conditions: endpoint: mean survival time, higher = longer survival
Method in brief: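 Mice bearing the transplanted tumor received compound or vehicle. Survival of the treated group was divided by that of the vehicle-treated control group to give the ratio.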

[1] = dose: 100.0 mg/kg/injection, schedule: Q04DX002 (ip), vehicle: Klucel (hydroxypropylcellulose) (HPC)
[2] = dose: 200.0 mg/kg/injection, schedule: Q04DX002 (ip), vehicle: Klucel (hydroxypropylcellulose) (HPC)
[3] = dose: 100.0 mg/kg/injection, schedule: Q01DX001 (ip), vehicle: Klucel (hydroxypropylcellulose) (HPC)
[4] = dose: 100.0 mg/kg/injection, schedule: Q01DX009 (ip), vehicle: Klucel (hydroxypropylcellulose) (HPC)
[5] = dose: 200.0 mg/kg/injection, schedule: Q01DX001 (ip), vehicle: Klucel (hydroxypropylcellulose) (HPC)
[6] = dose: 200.0 mg/kg/injection, schedule: Q01DX009 (ip), vehicle: Klucel (hydroxypropylcellulose) (HPC)
[7] = dose: 400.0 mg/kg/injection, schedule: Q01DX009 (ip), vehicle: Klucel (hydroxypropylcellulose) (HPC)
[8] = dose: 100.0 mg/kg/injection, schedule: Q01DX009 (ip), vehicle: saline
[9] = dose: 200.0 mg/kg/injection, schedule: Q01DX009 (ip), vehicle: saline
[10] = dose: 100.0 mg/kg/injection, schedule: Q01DX001 (ip), vehicle: saline
[11] = dose: 200.0 mg/kg/injection, schedule: Q01DX001 (ip), vehicle: saline
[12] = dose: 400.0 mg/kg/injection, schedule: Q01DX001 (ip), vehicle: saline
[13] = dose: 100.0 mg/kg/injection, schedule: Q01DX001 (ip), vehicle: carboxymethylcellulose (CMC)
[14] = dose: 200.0 mg/kg/injection, schedule: Q01DX001 (ip), vehicle: carboxymethylcellulose (CMC)
[15] = dose: 400.0 mg/kg/injection, schedule: Q01DX001 (ip), vehicle: carboxymethylcellulose (CMC)
[16] = dose: 100.0 mg/kg/injection, schedule: Q01DX009 (ip), vehicle: saline with Tween-80
[17] = dose: 200.0 mg/kg/injection, schedule: Q01DX009 (ip), vehicle: saline with Tween-80

CC1(C)C(=O)C2CCC1C2 (stereo unspecified)
T/C [1]: 90 % of control | T/C [2]: 87 % of control | T/C (dose: 400.0 mg/kg/injection, schedule: Q04DX002 (ip), vehicle: Klucel (hydroxypropylcellulose) (HPC)): 103 % of control

Cc1cc(N(c2c(Cl)c(Cl)c(NS(=O)(=O)c3ccccc3)c(Cl)c2Cl)S(=O)(=O)c2ccccc2)cc(C)c1N
T/C [3]: 98 % of control | T/C [4]: 100 % of control | T/C [5]: 95 % of control | T/C [6]: 95 % of control | T/C (dose: 400.0 mg/kg/injection, schedule: Q01DX001 (ip), vehicle: Klucel (hydroxypropylcellulose) (HPC)): 90 % of control | T/C [7]: 94 % of control

O=C1OC(=O)C2C1C1(Cl)C(Cl)=C(Cl)C2(Cl)C2C(=O)OC(=O)C21 (stereo unspecified)
T/C [8]: 94 % of control | T/C (dose: 100.0 mg/kg/injection, schedule: Q04DX003 (ip), vehicle: saline): 95 % of control | T/C [9]: 90 % of control | T/C (dose: 200.0 mg/kg/injection, schedule: Q04DX003 (ip), vehicle: saline): 95 % of control | T/C (dose: 400.0 mg/kg/injection, schedule: Q01DX009 (ip), vehicle: saline): 91 % of control | T/C (dose: 400.0 mg/kg/injection, schedule: Q04DX003 (ip), vehicle: saline): 95 % of control

N/C(=N/N=C\c1ccccc1Cl)N/N=C/c1ccccc1Cl
T/C (dose: 15.0 mg/kg/injection, schedule: Q01DX Z (ip), vehicle: carboxymethylcellulose (CMC)): 94 % of control | T/C (dose: 30.0 mg/kg/injection, schedule: Q01DX Z (ip), vehicle: carboxymethylcellulose (CMC)): 100 % of control | T/C (dose: 60.0 mg/kg/injection, schedule: Q01DX Z (ip), vehicle: carboxymethylcellulose (CMC)): 95 % of control | T/C (dose: 120.0 mg/kg/injection, schedule: Q01DX Z (ip), vehicle: carboxymethylcellulose (CMC)): 94 % of control | T/C (dose: 120.0 mg/kg/injection, schedule: Q01DX Z (oral), vehicle: carboxymethylcellulose (CMC)): 100 % of control | T/C (dose: 240.0 mg/kg/injection, schedule: Q01DX Z (oral), vehicle: carboxymethylcellulose (CMC)): 100 % of control | T/C (dose: 960.0 mg/kg/injection, schedule: Q01DX Z (oral), vehicle: carboxymethylcellulose (CMC)): 101 % of control

CN(C)C=Nc1c(I)cc(I)c(CCC(=O)O)c1I
T/C [10]: 96 % of control | T/C [11]: 96 % of control | T/C [12]: 94 % of control

O=C(O)c1cc(Br)sc1Br
T/C [13]: 101 % of control | T/C [14]: 95 % of control | T/C [15]: 95 % of control

Nc1nc(N)c(CCCOc2ccc(NC(=O)CBr)cc2)c(N)n1
T/C (dose: 12.5 mg/kg/injection, schedule: Q01DX001 (ip), vehicle: Klucel (hydroxypropylcellulose) (HPC)): 98 % of control | T/C (dose: 25.0 mg/kg/injection, schedule: Q01DX001 (ip), vehicle: Klucel (hydroxypropylcellulose) (HPC)): 100 % of control | T/C (dose: 50.0 mg/kg/injection, schedule: Q01DX001 (ip), vehicle: Klucel (hydroxypropylcellulose) (HPC)): 105 % of control

C/[N+]([O-])=N\Nc1c(Br)cc(Br)cc1Br
T/C (dose: 50.0 mg/kg/injection, schedule: Q01DX009 (ip), vehicle: saline with Tween-80): 105 % of control | T/C [16]: 102 % of control | T/C [17]: 105 % of control

CN(C(=O)c1cccc([N+](=O)[O-])c1)C1CCCCC1
T/C [4]: 93 % of control | T/C [6]: 100 % of control | T/C [7]: 96 % of control

O=CC1CC2c3ccccc3C1c1ccccc12 (stereo unspecified)
T/C (dose: 100.0 mg/kg/injection, schedule: Q01DX009 (ip), vehicle: gum acacia): 106 % of control | T/C (dose: 100.0 mg/kg/injection, schedule: Q04DX003 (ip), vehicle: gum acacia): 95 % of control | T/C (dose: 200.0 mg/kg/injection, schedule: Q01DX009 (ip), vehicle: gum acacia): 95 % of control | T/C (dose: 200.0 mg/kg/injection, schedule: Q04DX003 (ip), vehicle: gum acacia): 92 % of control | T/C (dose: 400.0 mg/kg/injection, schedule: Q01DX009 (ip), vehicle: gum acacia): 102 % of control | T/C (dose: 400.0 mg/kg/injection, schedule: Q04DX003 (ip), vehicle: gum acacia): 87 % of control

O=S(=O)(Nc1ncccn1)c1ccc(N=Nc2ccc(O)c3ncccc23)cc1
T/C [10]: 100 % of control | T/C [11]: 103 % of control | T/C [12]: 103 % of control

COC(=O)C(C)NC(=O)C(COC1OC(COC(C)=O)C(OC(C)=O)C(OC(C)=O)C1NC(C)=O)NC(=O)OCc1ccccc1 (stereo unspecified)
T/C (dose: 50.0 mg/kg/injection, schedule: Q04DX002 (ip), vehicle: Klucel (hydroxypropylcellulose) (HPC)): 98 % of control | T/C [1]: 91 % of control | T/C [2]: 98 % of control

O=C1C(NC(=O)C2CCCCC2)=C(N2CC2)C(=O)C(NC(=O)C2CCCCC2)=C1N1CC1
T/C (dose: 50.0 mg/kg/injection, schedule: Q01DX010 (ip), vehicle: saline): 93 % of control and 101 % of control | T/C (dose: 50.0 mg/kg/injection, schedule: Q01DX Z (ip), vehicle: Klucel (hydroxypropylcellulose) (HPC)): 105 % of control | T/C (dose: 78.0 mg/kg/injection, schedule: Q01DX Z (ip), vehicle: carboxymethylcellulose (CMC)): 115 % of control | T/C (dose: 100.0 mg/kg/injection, schedule: Q01DX010 (ip), vehicle: saline): 101 % of control and 104 % of control | T/C (dose: 100.0 mg/kg/injection, schedule: Q01DX Z (ip), vehicle: Klucel (hydroxypropylcellulose) (HPC)): 109 % of control | T/C (dose: 117.0 mg/kg/injection, schedule: Q01DX Z (ip), vehicle: carboxymethylcellulose (CMC)): 104 % of control | T/C (dose: 175.0 mg/kg/injection, schedule: Q01DX Z (ip), vehicle: carboxymethylcellulose (CMC)): 119 % of control | T/C (dose: 200.0 mg/kg/injection, schedule: Q01DX010 (ip), vehicle: saline): 98 % of control and 115 % of control | T/C (dose: 263.0 mg/kg/injection, schedule: Q01DX Z (ip), vehicle: carboxymethylcellulose (CMC)): 150 % of control | T/C (dose: 400.0 mg/kg/injection, schedule: Q01DX010 (ip), vehicle: saline): 98 % of control and 104 % of control | T/C (dose: 400.0 mg/kg/injection, schedule: Q01DX Z (ip), vehicle: Klucel (hydroxypropylcellulose) (HPC)): 102 % of control | T/C (dose: 440.0 mg/kg/injection, schedule: Q01DX001 (ip), vehicle: carboxymethylcellulose (CMC)): 102 % of control and 119 % of control | T/C (dose: 670.0 mg/kg/injection, schedule: Q01DX001 (ip), vehicle: carboxymethylcellulose (CMC)): 103 % of control and 91 % of control | T/C (dose: 1000.0 mg/kg/injection, schedule: Q01DX001 (ip), vehicle: carboxymethylcellulose (CMC)): 101 % of control and 103 % of control

C/C=C/C=C(\CC)C(=O)OCC
T/C (dose: 50.0 mg/kg/injection, schedule: Q01DX009 (ip), vehicle: saline): 115 % of control | T/C [16]: 98 % of control | T/C [8]: 99 % of control | T/C [17]: 90 % of control | T/C [9]: 96 % of control | T/C (dose: 400.0 mg/kg/injection, schedule: Q01DX009 (ip), vehicle: saline with Tween-80): 101 % of control

Cc1ccc(C(C)C)c(O)c1C(=O)O
T/C [3]: 96 % of control | T/C [5]: 104 % of control

NC(=O)c1cc2ccccc2[n+](Cc2ccc(F)cc2)c1
T/C (dose: 75.0 mg/kg/injection, schedule: Q01DX001 (ip), vehicle: saline): 107 % of control

S=c1cc[nH]c(=S)[nH]1
T/C (dose: 50.0 mg/kg/injection, schedule: Q04DX003 (ip), vehicle: Klucel (hydroxypropylcellulose) (HPC)): 97 % of control | T/C (dose: 100.0 mg/kg/injection, schedule: Q04DX003 (ip), vehicle: Klucel (hydroxypropylcellulose) (HPC)): 97 % of control | T/C (dose: 200.0 mg/kg/injection, schedule: Q04DX003 (ip), vehicle: Klucel (hydroxypropylcellulose) (HPC)): 95 % of control

CCCCCCOc1ccc(C(=O)C(=O)c2ccccc2)cc1
T/C [13]: 109 % of control | T/C [14]: 88 % of control | T/C [15]: 97 % of control

Clc1nc2ncn3ncnc3c2[nH]1
T/C (dose: 100.0 mg/kg/injection, schedule: Q01DX001 (ip), vehicle: saline with Tween-80): 104 % of control | T/C (dose: 200.0 mg/kg/injection, schedule: Q01DX001 (ip), vehicle: saline with Tween-80): 101 % of control | T/C (dose: 400.0 mg/kg/injection, schedule: Q01DX001 (ip), vehicle: saline with Tween-80): 92 % of control
